Paper PMC6315362, “Cytotoxic Potential of the Novel Horseshoe Crab Peptide Polyphemusin III” (Marine Drugs, 2018)
Where no end group is shown, it is not given here.

Tests used:
HL-60 cells = test: Annexin V-FITC/propidium iodide double staining and flow cytometry; assay type: cell-based, human; details: HL-60, 4 h of incubation, 50 μM Z-VAD-FMK
Source text: To further investigate the effect of PM III on human cells, we performed annexin V-FITC/propidium iodide double staining with subsequent flow cytometric analysis. Annexin V-FITC binds to phosphatidylserine, which is exposed on the outer leaflet of the cellular plasma membrane at the initial stages of apoptosis, whereas propidium iodide (PI) preferentially stains nuclei of dead cells. Therefore, a combination of annexin V-FITC and PI assays allows differentiation between early apoptotic and late apoptotic/necrotic cell populations. PM III was used at two final concentrations of 2.5 and 5 μM. In order to elucidate the predominant mechanism of the PM III action, we applied a widely used caspase inhibitor, Z-VAD-FMK [23].
Cell death analysis with fluorescein isothiocyanate conjugated annexin V (annexin V-FITC)/propidium iodide double staining and dead cells counting with flow cytometry were performed 4 h after addition of polyphemusin III up to a final concentration of 2.5 or 5 μM. The Annexin V-FITC Apoptosis Detection Kit (BD Biosciences, Franklin Lakes, NJ, USA) was used according to the manufacturer’s protocol on a NovoCyte flow cytometer (ACEA Biosciences, San Diego, CA, USA). Each experiment was performed in triplicate. The apoptosis inducer camptothecin (Sigma-Aldrich, St. Louis, MO, USA) and the general caspase inhibitor, Z-VAD-FMK (BD Biosciences, Franklin Lakes, NJ, USA), were used. All flow cytometry experiments were performed twice.

[1] = test system: Gram-negative and Gram-positive bacteria; details: synthetic PM I against Gram-negative and Gram-positive bacteria; cited from earlier work
Description: Our experimental data for the obtained recombinant PM I are in line with those obtained earlier for synthetic PM I against Gram-negative and Gram-positive bacteria (with reported MICs not exceeding 1 μM).

| Compound | influence of the caspase inhibitor Z-VAD-FMK on the effect of the substance (annexin V-FITC/PI staining) (HL-60 cells) | MICs [1] [µM] |
| --- | --- | --- |
| CC[C@@]1(O)C(=O)OCc2c1cc1n(c2=O)Cc2cc3ccccc3nc2-1 [campthotecin, camptothecin] | totally abrogated |  |
| synthetic PM I: synthetic polyphemusin I of earlier reports (RRWCFRVCYRGFCYRKCR; ends and bridges not checked; cysteine pairing not given here; UniProt P14215 1-18, looked up) |  | ≤ 1 |
